Data taken from ChEMBL document CHEMBL3994622, “Design and synthesis of new RAF kinase-inhibiting antiproliferative quinoline derivatives. Part 2: Diarylurea derivatives” (Eur J Med Chem, 2017).

How the values were obtained:
Format in all cases: functional
K562 = experiment: Growth inhibition of human K562 cells assessed as cell growth at 10 uM incubated for 48 hrs by sulforhodamine B assay relative to control; details: K562, 48 h, read-out: Activity
MOLT-4 = experiment: Growth inhibition of human MOLT4 cells assessed as cell growth at 10 uM incubated for 48 hrs by sulforhodamine B assay relative to control; details: MOLT-4, 48 h, read-out: Activity
SR = experiment: Growth inhibition of human SR cells assessed as cell growth at 10 uM incubated for 48 hrs by sulforhodamine B assay relative to control; details: read-out: Activity
A549 = experiment: Growth inhibition of human A549/ATCC cells assessed as cell growth at 10 uM incubated for 48 hrs by sulforhodamine B assay relative to control; details: A549, 48 h, read-out: Activity
EKVX = experiment: Growth inhibition of human EKVX cells assessed as cell growth at 10 uM incubated for 48 hrs by sulforhodamine B assay relative to control; details: read-out: Activity
NCI-H226 = experiment: Growth inhibition of human NCI-H226 cells assessed as cell growth at 10 uM incubated for 48 hrs by sulforhodamine B assay relative to control; details: NCI-H226, 48 h, read-out: Activity
NCI-H460 = experiment: Growth inhibition of human NCI-H460 cells assessed as cell growth at 10 uM incubated for 48 hrs by sulforhodamine B assay relative to control; details: NCI-H460, 48 h, read-out: Activity
NCI-H522 = experiment: Growth inhibition of human NCI-H522 cells assessed as cell growth at 10 uM incubated for 48 hrs by sulforhodamine B assay relative to control; details: NCI-H522, 48 h, read-out: Activity
COLO 205 = experiment: Growth inhibition of human COLO205 cells assessed as cell growth at 10 uM incubated for 48 hrs by sulforhodamine B assay relative to control; details: COLO 205, 48 h, read-out: Activity
HCC 2998 = experiment: Growth inhibition of human HCC2998 cells assessed as cell growth at 10 uM incubated for 48 hrs by sulforhodamine B assay relative to control; details: HCC 2998, 48 h, read-out: Activity
HCT-15 = experiment: Growth inhibition of human HCT15 cells assessed as cell growth at 10 uM incubated for 48 hrs by sulforhodamine B assay relative to control; details: HCT-15, 48 h, read-out: Activity
HT-29 = experiment: Growth inhibition of human HT-29 cells assessed as cell growth at 10 uM incubated for 48 hrs by sulforhodamine B assay relative to control; details: HT-29, 48 h, read-out: Activity
SF-268 = experiment: Growth inhibition of human SF268 cells assessed as cell growth at 10 uM incubated for 48 hrs by sulforhodamine B assay relative to control; details: SF-268, 48 h, read-out: Activity
SF-295 = experiment: Growth inhibition of human SF295 cells assessed as cell growth at 10 uM incubated for 48 hrs by sulforhodamine B assay relative to control; details: SF-295, 48 h, read-out: Activity
SNB-19 = experiment: Growth inhibition of human SNB19 cells assessed as cell growth at 10 uM incubated for 48 hrs by sulforhodamine B assay relative to control; details: SNB-19, 48 h, read-out: Activity
SNB-75 = experiment: Growth inhibition of human SNB75 cells assessed as cell growth at 10 uM incubated for 48 hrs by sulforhodamine B assay relative to control; details: SNB-75, 48 h, read-out: Activity
LOX IMVI = experiment: Growth inhibition of human LOXIMVI cells assessed as cell growth at 10 uM incubated for 48 hrs by sulforhodamine B assay relative to control; details: read-out: Activity
M14 = experiment: Growth inhibition of human M14 cells assessed as cell growth at 10 uM incubated for 48 hrs by sulforhodamine B assay relative to control; details: M14, 48 h, read-out: Activity
MDA-MB-435 = experiment: Growth inhibition of human MDA-MB-435 cells assessed as cell growth at 10 uM incubated for 48 hrs by sulforhodamine B assay relative to control; details: MDA-MB-435, 48 h, read-out: Activity
SK-MEL-2 = experiment: Growth inhibition of human SK-MEL-2 cells assessed as cell growth at 10 uM incubated for 48 hrs by sulforhodamine B assay relative to control; details: SK-MEL-2, 48 h, read-out: Activity
UACC-257 = experiment: Growth inhibition of human UACC257 cells assessed as cell growth at 10 uM incubated for 48 hrs by sulforhodamine B assay relative to control; details: UACC-257, 48 h, read-out: Activity
UACC-62 = experiment: Growth inhibition of human UACC62 cells assessed as cell growth at 10 uM incubated for 48 hrs by sulforhodamine B assay relative to control; details: UACC-62, 48 h, read-out: Activity
IGROV-1 = experiment: Growth inhibition of human IGROV1 cells assessed as cell growth at 10 uM incubated for 48 hrs by sulforhodamine B assay relative to control; details: IGROV-1, 48 h, read-out: Activity
OVCAR-4 = experiment: Growth inhibition of human OVCAR4 cells assessed as cell growth at 10 uM incubated for 48 hrs by sulforhodamine B assay relative to control; details: OVCAR-4, 48 h, read-out: Activity
OVCAR-5 = experiment: Growth inhibition of human OVCAR5 cells assessed as cell growth at 10 uM incubated for 48 hrs by sulforhodamine B assay relative to control; details: OVCAR-5, 48 h, read-out: Activity
A498 = experiment: Growth inhibition of human A498 cells assessed as cell growth at 10 uM incubated for 48 hrs by sulforhodamine B assay relative to control; details: A498, 48 h, read-out: Activity
ACHN = experiment: Growth inhibition of human ACHN cells assessed as cell growth at 10 uM incubated for 48 hrs by sulforhodamine B assay relative to control; details: read-out: Activity
CAKI-1 = experiment: Growth inhibition of human Caki1 cells assessed as cell growth at 10 uM incubated for 48 hrs by sulforhodamine B assay relative to control; details: CAKI-1, 48 h, read-out: Activity
DU-145 = experiment: Growth inhibition of human DU145 cells assessed as cell growth at 10 uM incubated for 48 hrs by sulforhodamine B assay relative to control; details: DU-145, 48 h, read-out: Activity
MCF7 = experiment: Growth inhibition of human MCF7 cells assessed as cell growth at 10 uM incubated for 48 hrs by sulforhodamine B assay relative to control; details: MCF7, 48 h, read-out: Activity
Hs-578T = experiment: Growth inhibition of human Hs 578T cells assessed as cell growth at 10 uM incubated for 48 hrs by sulforhodamine B assay relative to control; details: read-out: Activity
BT-549 = experiment: Growth inhibition of human BT549 cells assessed as cell growth at 10 uM incubated for 48 hrs by sulforhodamine B assay relative to control; details: BT-549, 48 h, read-out: Activity
T47D = experiment: Growth inhibition of human T47D cells assessed as cell growth at 10 uM incubated for 48 hrs by sulforhodamine B assay relative to control; details: read-out: Activity

Structure (SMILES) | growth at 10 µM (K562) [%] | growth at 10 µM (MOLT-4) [%] | growth at 10 µM (SR) [%] | growth at 10 µM (A549) [%] | growth at 10 µM (EKVX) [%] | growth at 10 µM (NCI-H226) [%] | growth at 10 µM (NCI-H460) [%] | growth at 10 µM (NCI-H522) [%] | growth at 10 µM (COLO 205) [%] | growth at 10 µM (HCC 2998) [%] | growth at 10 µM (HCT-15) [%] | growth at 10 µM (HT-29) [%] | growth at 10 µM (SF-268) [%] | growth at 10 µM (SF-295) [%] | growth at 10 µM (SNB-19) [%] | growth at 10 µM (SNB-75) [%] | growth at 10 µM (LOX IMVI) [%] | growth at 10 µM (M14) [%] | growth at 10 µM (MDA-MB-435) [%] | growth at 10 µM (SK-MEL-2) [%] | other results
COc1cc2cc(Oc3ccc(NC(=O)Nc4cccc(C(F)(F)F)c4)cc3)c(C)nc2cc1OC | 11.5 | 0.81 | -6.62 | 3.09 | 15.4 | -23.5 | 2.68 | -17.4 | -20.2 | 25.4 | 15.2 | 6.56 | 29.2 | -15.1 | 31.4 | 13.1 | 9.78 | 22.6 | 7.23 | -35.8 | growth at 10 µM (UACC-257): -14.5%; growth at 10 µM (UACC-62): 14.5%; growth at 10 µM (IGROV-1): 8.77%; growth at 10 µM (OVCAR-4): 31.7%; growth at 10 µM (OVCAR-5): 27.8%; growth at 10 µM (A498): 21.7%; growth at 10 µM (ACHN): 11.2%; growth at 10 µM (CAKI-1): 9.13%; growth at 10 µM (DU-145): 26.7%; growth at 10 µM (MCF7): 6.81%; growth at 10 µM (Hs-578T): 22.6%; growth at 10 µM (BT-549): -8.13%; growth at 10 µM (T47D): 27.8%
COc1cc2cc(Oc3ccc(NC(=O)Nc4ccc(Cl)c(C(F)(F)F)c4)cc3)c(C)nc2cc1OC | -9.54 | -27.9 | -32.5 | -17.2 | 8.83 | 4.49 | -19.8 | -43.6 | -49.5 | -13.1 | 1.27 | -24.9 | -10.2 | -70.9 | 23.7 | 12.4 | -81.3 | -73.7 | -25.7 | -49.8 | growth at 10 µM (UACC-257): -12.5%; growth at 10 µM (UACC-62): -51.5%; growth at 10 µM (IGROV-1): -7.69%; growth at 10 µM (OVCAR-4): 17.1%; growth at 10 µM (OVCAR-5): 18%; growth at 10 µM (A498): 10.4%; growth at 10 µM (ACHN): 13.6%; growth at 10 µM (CAKI-1): -8.92%; growth at 10 µM (DU-145): 12.7%; growth at 10 µM (MCF7): 2.59%; growth at 10 µM (Hs-578T): 2.5%; growth at 10 µM (BT-549): -38.7%; growth at 10 µM (T47D): 21.4%
COc1cc2cc(Oc3ccc(NC(=O)Nc4ccc(C(F)(F)F)cc4)cc3)c(C)nc2cc1OC | 57.1 | 61.9 | 59.6 | 32.4 | 75.7 | 20.9 | 42.8 | 63.2 | 40.4 | 94.8 | 75.4 | 44.6 | 79.3 | 56 | 93.5 | 41 | 56.4 | 95.2 | 80.3 | 76.7 | growth at 10 µM (UACC-257): 66.5%; growth at 10 µM (UACC-62): 69.2%; growth at 10 µM (IGROV-1): 71.9%; growth at 10 µM (OVCAR-4): 49%; growth at 10 µM (OVCAR-5): 92.9%; growth at 10 µM (A498): 90.5%; growth at 10 µM (ACHN): 56.1%; growth at 10 µM (CAKI-1): 70.4%; growth at 10 µM (DU-145): 71.4%; growth at 10 µM (MCF7): 84.3%; growth at 10 µM (Hs-578T): 70.9%; growth at 10 µM (BT-549): 113%; growth at 10 µM (T47D): 57.5%
